# From PubChem BioAssay AID330 (DTP/NCI, 2004)
# Where “and” joins values, the source holds several entries; their conditions need not be identical. Equal entries are not always repeated. Toxic doses and inconclusive results are not listed.
# Tested on: P388 leukemia ip, CD2F1 mice, survival T/C
# Assay: NCI In Vivo Anticancer Drug Screen. Data for tumor model P388 Leukemia (intraperitoneal) in CD2F1 (CDF1) mice
# Details: endpoint: median survival time, higher = longer survival
# In short: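 Mice carrying the transplanted tumor received test compound or vehicle. Survival was recorded in each group, and the value is the treated-group measurement divided by that of the vehicle-treated control group.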
# [1] = dose: 60.0 mg/kg/injection, schedule: Q01DX005 (ip), vehicle: saline with Tween-80
# [2] = dose: 120.0 mg/kg/injection, schedule: Q01DX005 (ip), vehicle: saline with Tween-80
# [3] = dose: 240.0 mg/kg/injection, schedule: Q01DX005 (ip), vehicle: saline with Tween-80
# [4] = dose: 50.0 mg/kg/injection, schedule: Q01DX009 (ip), vehicle: saline with Tween-80
# [5] = dose: 100.0 mg/kg/injection, schedule: Q01DX009 (ip), vehicle: saline with Tween-80
# [6] = dose: 200.0 mg/kg/injection, schedule: Q01DX009 (ip), vehicle: saline with Tween-80
# [7] = dose: 50.0 mg/kg/injection, schedule: Q01DX005 (ip), vehicle: Klucel (hydroxypropylcellulose) (HPC)
# [8] = dose: 100.0 mg/kg/injection, schedule: Q01DX005 (ip), vehicle: Klucel (hydroxypropylcellulose) (HPC)
# [9] = dose: 12.5 mg/kg/injection, schedule: Q01DX009 (ip), vehicle: saline
# [10] = dose: 25.0 mg/kg/injection, schedule: Q01DX009 (ip), vehicle: saline
# [11] = dose: 50.0 mg/kg/injection, schedule: Q01DX009 (ip), vehicle: saline
# [12] = dose: 100.0 mg/kg/injection, schedule: Q01DX001 (ip), vehicle: saline with Tween-80
# [13] = dose: 15.0 mg/kg/injection, schedule: Q01DX005 (ip), vehicle: Klucel (hydroxypropylcellulose) (HPC)
# [14] = dose: 30.0 mg/kg/injection, schedule: Q01DX005 (ip), vehicle: Klucel (hydroxypropylcellulose) (HPC)
# [15] = dose: 60.0 mg/kg/injection, schedule: Q01DX005 (ip), vehicle: Klucel (hydroxypropylcellulose) (HPC)
# [16] = dose: 12.5 mg/kg/injection, schedule: Q01DX009 (ip), vehicle: Klucel (hydroxypropylcellulose) (HPC)
# [17] = dose: 25.0 mg/kg/injection, schedule: Q01DX009 (ip), vehicle: Klucel (hydroxypropylcellulose) (HPC)
# [18] = dose: 50.0 mg/kg/injection, schedule: Q01DX009 (ip), vehicle: Klucel (hydroxypropylcellulose) (HPC)
# [19] = dose: 12.5 mg/kg/injection, schedule: Q01DX005 (ip), vehicle: saline with Tween-80
# [20] = dose: 25.0 mg/kg/injection, schedule: Q01DX005 (ip), vehicle: saline with Tween-80
# [21] = dose: 50.0 mg/kg/injection, schedule: Q01DX005 (ip), vehicle: saline with Tween-80
compound,measurement,setting,value
CC(C)C(C)C(O)C(O)C(C)C1CCC2C3COC(=O)C4CC(O)C(O)CC4(C)C3CCC12C (stereo not given),T/C,"dose: 0.75 mg/kg/injection, schedule: Q01DX009 (ip), vehicle: saline with Tween-80",106 % of control
same,T/C,"dose: 1.05 mg/kg/injection, schedule: Q01DX009 (ip), vehicle: saline with Tween-80",98 % of control
same,T/C,"dose: 1.5 mg/kg/injection, schedule: Q01DX009 (ip), vehicle: saline with Tween-80",112 % of control
same,T/C,"dose: 2.1 mg/kg/injection, schedule: Q01DX009 (ip), vehicle: saline with Tween-80",103 % of control
same,T/C,"dose: 3.0 mg/kg/injection, schedule: Q01DX009 (ip), vehicle: saline with Tween-80",99 % of control
same,T/C,"dose: 4.2 mg/kg/injection, schedule: Q01DX009 (ip), vehicle: saline with Tween-80",100 % of control
same,T/C,"dose: 6.0 mg/kg/injection, schedule: Q01DX009 (ip), vehicle: saline with Tween-80",103 % of control
N#CCCN(CCC#N)c1ccc(/C=C2\C(=O)N(c3ccc(S(=O)(=O)O)cc3)N=C2C(=O)O)cc1,T/C,[1],102 % of control
same,T/C,[2],94 % of control
same,T/C,[3],105 % of control
Cc1nc2c([N+](=O)[O-])c(N3CCN(c4ccccc4)CC3)c([N+](=O)[O-])cc2[nH]1,T/C,[4],100 % of control
same,T/C,[5],100 % of control
same,T/C,[6],99 % of control
CC(C)B1N(C(C)(C)C)B(C(C)C)N(C(C)(C)C)B(C(C)C)N1C(C)(C)C,T/C,[1],93 % of control
same,T/C,[2],101 % of control
same,T/C,[3],104 % of control
CCCCC1C(=S)N(c2ccccc2)N(c2ccccc2)C1=S,T/C,[7],101 % of control
same,T/C,[8],94 % of control
same,T/C,"dose: 200.0 mg/kg/injection, schedule: Q01DX005 (ip), vehicle: Klucel (hydroxypropylcellulose) (HPC)",97 % of control
Cc1cc2cc3cc(C)c(N)cc3nc2cc1N,T/C,"dose: 6.25 mg/kg/injection, schedule: Q01DX009 (ip), vehicle: saline with Tween-80",120 % of control and 219 % of control
same,T/C,[9],113 % of control
same,T/C,[10],110 % of control
same,T/C,[4],97 % of control
same,T/C,[11],114 % of control
COc1ccc2c(c1)C1CN(Cc3ccccc31)C2 (stereo not given),T/C,[12],99 % of control
O=c1ssc2ncccc12,T/C,[1],104 % of control
same,T/C,[2],103 % of control
same,T/C,[3],117 % of control
COc1ccc(C(NC(N)=O)c2cc3c(cc2OC(C)=O)OCO3)c(OC)c1 (stereo not given),T/C,[13],91 % of control
same,T/C,[14],92 % of control
same,T/C,[15],90 % of control and 91 % of control
CC(O)CC1=Nc2c(nc(N)[nH]c2=O)N(C)C1 (stereo not given),T/C,"dose: 100.0 mg/kg/injection, schedule: Q04DX003 (ip), vehicle: saline with Tween-80",98 % of control
same,T/C,"dose: 200.0 mg/kg/injection, schedule: Q04DX003 (ip), vehicle: saline with Tween-80",97 % of control
same,T/C,"dose: 400.0 mg/kg/injection, schedule: Q04DX003 (ip), vehicle: saline with Tween-80",113 % of control
CCN(CC)Cc1c(C)nc2ccc(N(C)C)cc2c1Cl,T/C,[16],115 % of control
same,T/C,[17],110 % of control
same,T/C,[18],100 % of control and 96 % of control
O=CNc1cc(NC=O)ncn1,T/C,"dose: 15.0 mg/kg/injection, schedule: Q01DX009 (ip), vehicle: saline with Tween-80",99 % of control
same,T/C,"dose: 30.0 mg/kg/injection, schedule: Q01DX009 (ip), vehicle: saline with Tween-80",97 % of control
same,T/C,"dose: 60.0 mg/kg/injection, schedule: Q01DX009 (ip), vehicle: saline with Tween-80",103 % of control
CC(=O)C1=C(N)OCCC1,T/C,[11],114 % of control
same,T/C,"dose: 100.0 mg/kg/injection, schedule: Q01DX009 (ip), vehicle: saline",107 % of control
same,T/C,"dose: 200.0 mg/kg/injection, schedule: Q01DX009 (ip), vehicle: saline",109 % of control
CCCCC(C)(CCN)CCCC,T/C,"dose: 25.0 mg/kg/injection, schedule: Q01DX009 (ip), vehicle: suspension in saline",103 % of control
same,T/C,"dose: 50.0 mg/kg/injection, schedule: Q01DX009 (ip), vehicle: suspension in saline",105 % of control
same,T/C,"dose: 100.0 mg/kg/injection, schedule: Q01DX009 (ip), vehicle: suspension in saline",106 % of control
Cn1cc(C2=C(Cl)C(=O)N(c3cc(Cl)cc(Cl)c3)C2=O)c(=O)n(C)c1=O,T/C,[13],99 % of control
same,T/C,[14],99 % of control
same,T/C,[15],111 % of control
CC(=O)N=c1ccc2nc3c(cc(N)c4ccccc43)oc-2c1,T/C,"dose: 10.0 mg/kg/injection, schedule: Q01DX005 (ip), vehicle: Klucel (hydroxypropylcellulose) (HPC)",98 % of control
same,T/C,"dose: 20.0 mg/kg/injection, schedule: Q01DX005 (ip), vehicle: Klucel (hydroxypropylcellulose) (HPC)",100 % of control
same,T/C,"dose: 40.0 mg/kg/injection, schedule: Q01DX005 (ip), vehicle: Klucel (hydroxypropylcellulose) (HPC)",98 % of control
CCCC1N=C(N)N=C(N)N1c1ccc(OC)cc1 (stereo not given),T/C,[19],100 % of control
same,T/C,[20],103 % of control
same,T/C,[21],101 % of control and 106 % of control
N#CC1OC1c1cccnc1 (stereo not given),T/C,[19],105 % of control and 111 % of control
same,T/C,[20],105 % of control and 106 % of control
same,T/C,[21],121 % of control
CC(C)=CCc1c(C)cc2cc3c(c(O)c2c1O)C(O)=CC(=O)C3(CC=C(C)C)CC=C(CO)CO (stereo not given),T/C,"dose: 25.0 mg/kg/injection, schedule: Q01DX005 (ip), vehicle: Klucel (hydroxypropylcellulose) (HPC)",97 % of control
same,T/C,[7],93 % of control
same,T/C,[8],94 % of control
CCSC(C#N)C(C)=O (stereo not given),T/C,[9],106 % of control
same,T/C,[10],97 % of control
same,T/C,[4],100 % of control
same,T/C,[11],100 % of control
COc1cccc2c(NCCCCCO[N+](=O)[O-])cc[n+](C)c12,T/C,[16],104 % of control
same,T/C,[17],110 % of control
same,T/C,[18],107 % of control
Cn1c(Br)c(C=O)c2ccccc21,T/C,"dose: 100.0 mg/kg/injection, schedule: Q01DX001 (ip), vehicle: Klucel (hydroxypropylcellulose) (HPC)",100 % of control
same,T/C,"dose: 200.0 mg/kg/injection, schedule: Q01DX001 (ip), vehicle: Klucel (hydroxypropylcellulose) (HPC)",102 % of control
same,T/C,"dose: 400.0 mg/kg/injection, schedule: Q01DX001 (ip), vehicle: Klucel (hydroxypropylcellulose) (HPC)",105 % of control
OCCc1nccnn1,T/C,"dose: 12.5 mg/kg/injection, schedule: Q04DX003 (ip), vehicle: saline",104 % of control
same,T/C,"dose: 25.0 mg/kg/injection, schedule: Q04DX003 (ip), vehicle: saline",107 % of control
same,T/C,"dose: 50.0 mg/kg/injection, schedule: Q04DX003 (ip), vehicle: saline",104 % of control
same,T/C,"dose: 200.0 mg/kg/injection, schedule: Q04DX003 (ip), vehicle: saline",87 % of control
same,T/C,"dose: 400.0 mg/kg/injection, schedule: Q04DX003 (ip), vehicle: saline",86 % of control
C[C@H]1CCC/C=C/[C@@H]2C[C@H](O)C[C@H]2[C@H](O)/C=C/C(=O)O1,T/C,"dose: 100.0 mg/kg/injection, schedule: Q04DX003 (ip), vehicle: Klucel (hydroxypropylcellulose) (HPC)",104 % of control
same,T/C,"dose: 200.0 mg/kg/injection, schedule: Q04DX003 (ip), vehicle: Klucel (hydroxypropylcellulose) (HPC)",90 % of control
CC(=O)n1c(Cl)c(/C=N/NC(N)=S)c2ccccc21,T/C,[12],86 % of control
same,T/C,"dose: 200.0 mg/kg/injection, schedule: Q01DX001 (ip), vehicle: saline with Tween-80",94 % of control
same,T/C,"dose: 400.0 mg/kg/injection, schedule: Q01DX001 (ip), vehicle: saline with Tween-80",100 % of control
[N-]=[N+]=Nc1ccnc2cc(F)ccc12,T/C,[1],96 % of control
same,T/C,[2],104 % of control
same,T/C,[3],95 % of control
O=C1N(CCO)C2=CCCCC23c2[nH]c4ccccc4c2CCN13 (stereo not given),T/C,[21],104 % of control
same,T/C,"dose: 100.0 mg/kg/injection, schedule: Q01DX005 (ip), vehicle: saline with Tween-80",102 % of control
same,T/C,"dose: 200.0 mg/kg/injection, schedule: Q01DX005 (ip), vehicle: saline with Tween-80",102 % of control
C/C=C(/C)c1cccc(OCc2ccccc2)c1OCc1ccccc1,T/C,[4],95 % of control
same,T/C,[5],90 % of control
same,T/C,[6],106 % of control
